Test results taken from the supplement of paper PMC10307832.

Legend:
Experiment in all cases: relative viability (nuclei count vs DMSO), 5 days (fraction); higher = more cells survive
Midostaurin + Linsitinib = compound: CO[C@@H]1[C@H](N(C)C(=O)c2ccccc2)C[C@H]2O[C@]1(C)n1c3ccccc3c3c4c(c5c6ccccc6n2c5c31)C(=O)NC4 [Midostaurin] + C[C@]1(O)C[C@@H](c2nc(-c3ccc4ccc(-c5ccccc5)nc4c3)c3c(N)nccn32)C1 [Linsitinib] (partner 1 µM)
Procedure, shortened: (§1)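 Each reported value is a median over duplicate plates. It expresses relative viability: treated-well nuclei count divided by vehicle-well nuclei count. Lung cancer cell lines in 1536-well plates were dosed by pin tool a day after seeding, alone with one drug or with a fixed anchor-drug dose plus five library-drug doses (not always all listed) in √10 steps, and nuclei were counted after 5 days.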

[1] = compound: COc1cc(-c2nn([C@H]3CC[C@H](N4CCN(C(C)=O)CC4)CC3)c3ncnc(N)c23)ccc1NC(=O)c1cc2ccccc2n1C + CC(=O)c1c(C)c2cnc(Nc3ccc(N4CCNCC4)cn3)nc2n(C2CCCC2)c1=O [Palbociclib] (partner 0.5 µM)
Procedure, shortened: as §1

[2] = compound: COc1cc(-c2nn([C@H]3CC[C@H](N4CCN(C(C)=O)CC4)CC3)c3ncnc(N)c23)ccc1NC(=O)c1cc2ccccc2n1C + Nc1ncn([C@H]2C[C@H](O)[C@@H](CO)O2)c(=O)n1 [Decitabine] (partner 2 µM)
Procedure, shortened: as §1

Midostaurin + Crizotinib = compound: CO[C@@H]1[C@H](N(C)C(=O)c2ccccc2)C[C@H]2O[C@]1(C)n1c3ccccc3c3c4c(c5c6ccccc6n2c5c31)C(=O)NC4 [Midostaurin] + C[C@@H](Oc1cc(-c2cnn(C3CCNCC3)c2)cnc1N)c1c(Cl)ccc(F)c1Cl [Crizotinib] (partner 1 µM)
Procedure, shortened: as §1

[3] = compound: COc1cc(-c2nn([C@H]3CC[C@H](N4CCN(C(C)=O)CC4)CC3)c3ncnc(N)c23)ccc1NC(=O)c1cc2ccccc2n1C + CC1(C)CCC(c2ccc(Cl)cc2)=C(CN2CCN(c3ccc(C(=O)NS(=O)(=O)c4ccc(N[C@H](CCN5CCOCC5)CSc5ccccc5)c(S(=O)(=O)C(F)(F)F)c4)cc3)CC2)C1 [Navitoclax] (partner 0.5 µM)
Procedure, shortened: as §1

Cell Line | relative viability (Midostaurin + Linsitinib; first compound 0.01 µM) | relative viability (Midostaurin + Linsitinib; first compound 0.03162 µM) | relative viability (Midostaurin + Linsitinib; first compound 0.1 µM) | relative viability (Midostaurin + Linsitinib; first compound 0.3162 µM) | relative viability ([1]; first compound 0.0128 µM) | relative viability ([1]; first compound 0.04048 µM) | relative viability ([1]; first compound 0.128 µM) | relative viability ([1]; first compound 1.28 µM) | relative viability ([2]; first compound 0.0128 µM) | relative viability ([2]; first compound 0.04048 µM) | relative viability ([2]; first compound 0.128 µM) | relative viability ([2]; first compound 1.28 µM) | relative viability (Midostaurin + Crizotinib; first compound 0.01 µM) | relative viability (Midostaurin + Crizotinib; first compound 0.03162 µM) | relative viability (Midostaurin + Crizotinib; first compound 0.1 µM) | relative viability (Midostaurin + Crizotinib; first compound 0.3162 µM) | relative viability ([3]; first compound 0.0128 µM) | relative viability ([3]; first compound 0.04048 µM) | relative viability ([3]; first compound 0.128 µM) | relative viability ([3]; first compound 1.28 µM)
NCI-H661 | 0.56 | 0.638 | 0.532 | 0.439 | 0.421 | 0.436 | 0.42 | 0.419 | 0.513 | 0.532 | 0.511 | 0.509 | 0.931 | 0.928 | 0.918 | 0.982 | – | – | – | –
NCI-H1299 | 0.943 | 0.91 | 0.95 | 0.616 | – | – | – | – | – | – | – | – | 0.929 | 0.914 | 0.941 | 0.86 | 1.06 | 1.15 | 1.08 | 1.13
NCI-H1395 | 1.06 | 1.22 | 1.01 | 1.02 | 0.656 | 0.647 | 0.589 | 0.497 | 0.753 | 0.748 | 0.77 | 0.533 | – | – | – | – | 0.963 | 1.26 | 1.16 | 0.881
NCI-H1563 | 1.16 | 1.2 | 1.03 | 1.11 | – | – | – | – | – | – | – | – | 0.817 | 0.872 | 0.85 | 0.834 | – | – | – | –
NCI-H1648 | – | – | – | – | 0.263 | 0.275 | 0.242 | 0.333 | 0.595 | 0.447 | 0.482 | 0.452 | – | – | – | – | – | – | – | –
NCI-H1650 | – | – | – | – | 0.342 | 0.409 | 0.306 | 0.268 | 0.49 | 0.497 | 0.341 | 0.515 | 1.06 | 1.06 | 1.03 | 0.702 | 1.34 | 1.5 | 1.44 | 1.1
NCI-H1703 | 0.838 | 0.69 | 0.672 | 0.296 | – | – | – | – | – | – | – | – | 0.73 | 0.569 | 0.684 | 0.221 | 1.45 | 1.17 | 0.736 | 0.236
NCI-H1793 | 1.08 | 0.77 | 0.651 | 0.559 | 0.367 | 0.342 | 0.261 | 0.239 | 0.55 | 0.468 | 0.509 | 0.364 | – | – | – | – | 0.5 | 0.571 | 0.332 | 0.258
NCI-H2170 | – | – | – | – | 0.445 | 0.396 | 0.383 | 0.327 | 0.533 | 0.53 | 0.479 | 0.471 | 1.18 | 1.24 | 1.15 | 1.29 | 0.652 | 0.749 | 0.579 | 0.453
NCI-H2228 | 0.731 | 0.879 | 0.828 | 0.679 | 0.761 | 0.672 | 0.772 | 0.522 | – | – | – | – | 0.662 | 0.434 | 0.361 | 0.509 | 0.825 | 1.17 | 0.91 | 0.745
NCI-H2342 | – | – | – | – | 0.503 | 0.487 | 0.517 | 0.514 | 0.812 | 0.783 | 0.777 | 0.609 | – | – | – | – | – | – | – | –
SW 900 | – | – | – | – | 0.564 | 0.584 | 0.538 | 0.353 | 0.524 | 0.381 | 0.507 | 0.52 | – | – | – | – | – | – | – | –
